Measurements as given in patent US8288390B2, “Benzofuran derivatives” (Takeda Pharmaceutical Company Limited, priority 2009, dated 2012).
Where a name gives a salt, the structure may show the parent alone.

Columns and labels:
[1] = tested on: Akt protein; experiment: Activity of inhibiting Akt protein degradation in rat mixed glial culture; format: cell-based; conditions: compound 1 μM + rhIGF-1 100 ng/ml, 10 minutes at 37° C.; Akt calibrated with ERK; no addition = 100%, rhIGF-1 only = 0%
Method: The mixed glial cells used in the Test example 1 were seeded on a 6-well plate coated with collagen Type I (manufactured by Asahi Techno Glass Co., Ltd.) to 4×10^6 cells/well. Under the condition of 37° C. and 5% CO2, the cells were cultured for four days in a growth medium (D-MEM/F12 with 10% FBS, comprising PS). After that, the medium was exchanged with a serum-free medium (D-MEM/F12, comprising PS) and the cells were subjected to starvation for 4 hours under the condition of 37° C. and 5% CO2.
Next, rhIGF-1 (R&D Systems, 291-G1-250, final concentration 100 ng/ml) and the compound were added to obtain 1 μM and reacted in a water bath incubator at 37° C. for 10 minutes. Culture supernatant was aspirated off, 150 μL of RIPA (50 mM Tris-HCl pH7.5, 5 mM EDTA, 100 mM NaCl, 30 mM NaF, 5 mM sodium diphosphate, 137 mg/l pepstatin A, 2.5 KIU/l aprotinin, 1% NP-40, 6 mM sodium deoxycholate, 1 μM microcystinLR, 1 μM Z-Leu-Leu-Nva-H(aldehyde), 48 μM leupeptin, 96 μM 4-(2-aminoethyl)benzenesulfonyl fluoride-HCl, 1 mM sodium orthovanadate) was added thereto, and the reaction was terminated. After the termination of the reaction, the cell lysate was recovered by using a cell scraper on ice. Finally, the cell lysate was centrifuged for 30 minutes at 15000 rpm and the supernatant was taken as a cell extract.
Proteins were recovered from the cell extract by using trichloroacetic acid, and quantified according to Lowry method. Standard curve was established with bovine serum albumin. Based on the measured values, each cell extract was diluted with RIPA to prepare it in constant concentration (10 μg/lane). SDS-PAGE was carried out under reducing condition using 10% acrylamide (45 mA, 1.5 hours). After transferring to a PVDF membrane (0.13 A, 1 hour), reaction with an antibody was carried out. As a primary antibody, Akt (Cell Signaling, 9272) and ERK (Santa Cruz, sc-94) were used with the dilution ratio of 1000. As a secondary antibody, HRP-labeled anti-rabbit antibody (NA9340V, manufactured by Amersham) was used with the dilution ratio of 12500. Then, using ImmunoStar reagent (291-55203, manufactured by Wako Pure Chemical Industries, Ltd.), X-ray film detection was carried out. Quantification of the results was carried out by using GS-800 Calibrated Densitometer (manufactured by BioRad), and then the band strength was converted into the numerals by multiplying the absorbance originating from bands of Akt and ERK-1&2 by the area. Akt was calibrated with ERK to give the numeral values.
Inhibitory activity on Akt degradation was expressed as inhibition ratio. Specifically, the case in which neither the compound nor rhIGF-1 was added (no addition) is 100% and the case in which only rhIGF-1 was added is 0%, and then with the value measured from compound+rhIGF-1, the inhibition ratio was obtained. Inhibition ratio(%)=[(compound+rhIGF-1)−(rhIGF-1)]÷[(no addition)−(rhIGF-1)]×100

[2] = tested on: rat mixed glial culture; experiment: Activity of promoting neuronal neogenesis in rat mixed glial culture; format: cell-based; conditions: compound 1 μM + rhIGF-1 100 ng/ml, 3 days culture, absorbance at 450 nm (class III beta-tubulin antibody), control rhIGF-1 only = 100%; for activity at 1 µM: Rattus norvegicus, 72 h, read-out: Increase Ratio of the Absorbance (% control)
Method: From a three-day old SD rat, hippocampus and cerebral cortex were removed. By using a kit of dispersion liquid for neuronal cells (MB-X9901, manufactured by SUMITOMO BAKELITE CO., LTD.), cell suspension was prepared and then seeded on a 96-well plate coated with collagen Type I (4860-010, manufactured by Asahi Techno Glass Co., Ltd.) to 10^5 cells/well. Under the condition of 37° C. and 5% CO2, the cells were cultured for four days in a growth medium (D-MEM/F12 with 10% FBS, comprising PS).
After culturing, the medium was exchanged with a medium for differentiation (D-MEM/F12, comprising PS), added with rhIGF-1 (R&D Systems, 291-G1-250, final concentration of 100 ng/ml) and the compound to 1 μM, followed by further culture for three days. Cultured cells were fixed with 4% paraformaldehyde-PBS (manufactured by MUTO PURE CHEMICALS CO., LTD.) and subjected to membrane penetration using 0.1% Triton X-100 PBS, followed by blocking with Block Ace solution (UK-B80, manufactured by Dainippon Sumitomo Pharma Co., Ltd.). As a primary antibody, Anti-neuron-specific class III beta-tubulin antibody (R&D Systems, MAB1195, clone Tuj-1) was used after 1000× dilution. As a secondary antibody, Anti-Mouse Ig, HRP-Linked F (ab′) 2 Fragment Sheep (Amersham Biosciences, NA9310) was used after 10000× dilution. For washing process, the plate washer (BIO-TEK INSTRUMENTS ELX405) was used. For a chromogenic reaction, the reaction was carried out for 10 minutes using TMB Microwell Peroxidase Substrate System (Kirkegaard & Perry Laboratories, 50-76-00), followed by terminating the reaction according to the addition of 1M phosphoric acid. By using the plate reader (Labsystems Multiskan BICHROMATIC), absorbance at 450 nm was measured.
The absorbance for the case in which no compound is added (i.e., control, rhIGF-1 only) was 100%, and the increase ratio of the absorbance for the compound addition (i.e., compound+rhIGF-1) compared to the control was obtained as % control. Activity of the each compound for promoting neuronal differentiation that is measured according to the above method is summarized in Table 9 and Table 10.

[3] = tested on: Tg2576 transgenic mice; experiment: Amelioration of cognitive function in novel object recognition test; format: in vivo, mouse; conditions: female Tg2576 mice, 10 mg/kg/day orally once a day for 3 weeks; retention 24 hours after training; recovery ratio vs vehicle Tg2576 and wild type
Method: Female Tg2576 transgenic mice and wild-type littermates were used at 8-9 months old. All animals were housed in room maintained at 24±1° C. with a 12-h light/dark cycle. Lights on 7:00 a.m. Food chows (Oriental Yeast Co. Tokyo, Japan) and tap water were provided ad libitum.
The compounds (10 mg/kg/day) or vehicle (0.5% methylcellulose, Wako Pure Chemical Industries Limited, Osaka, Japan) was orally administered to the mice once a day for 3 weeks. After the gavages, the novel object recognition test was performed. The test procedure consisted of three sessions: habituation, training, and retention. In the training and retention sessions, observer was not informed of the group name or animal number (blind method). 4-5 mice were habituated to the box (30×30×30 high cm), with 30 minutes of exploration in the absence of objects (habituation session). During the training session, two objects were placed in the back corner of the box. A mouse was then placed at another corner of the box and the total time spent exploring the two objects was recorded for 5 minutes. During the retention session, animals were placed back into the same box 24 hours after the training session, in which one of the familiar objects used during training was replaced with a novel object. The animals were then allowed to explore freely for 5 minutes and the time spent exploring each object was recorded. Throughout the experiments, the objects were used in a counterbalanced manner in terms of an environmental effect, their physical complexity and emotional neutrality. A preference index (PI), a ratio of the amount of time spent exploring the novel object over the total time spent exploring both objects, was used to measure cognitive function. Furthermore, recovery ratio was calculated by following formula; [Recovery ratio]=[[PI of Tg2576 mice treated by each compound]−[PI of Tg2576 mice treated by vehicle]]/[[PI of wild type mice]−[PI of Tg2576 mice treated by vehicle]].×100(%)

| Compound | Inhibition of Akt degradation (%) [1] [%] | activity at 1 µM [2] [%] | Preference index (% recovery) [3] [% recovery] | Increase Ratio of the Absorbance (% control) [2] [% control] |
| --- | --- | --- | --- | --- |
| COc1ccc(N2CCN(c3c(C)c(C)c4c(c3C)CC(C)(C)O4)CC2)c(OC)c1 [Example 1, 1-(2,4-Dimethoxyphenyl)-4-(2,2,4,6,7-pentamethyl-2,3-dihydro-1-benzofuran-5-yl)piperazine] | 73.3 | 407 |  |  |
| COc1ccc(N2CCN(c3c(C)c(C)c4c(c3C)CC(C)(C)O4)CC2)cc1 [Example 17, 1-(4-Methoxyphenyl)-4-(2,2,4,6,7-pentamethyl-2,3-dihydro-1-benzofuran-5-yl)piperazine] | 73.3 | 216 | 70.9 |  |
| COc1ccc(N2CCN(c3c(C)c(C)c4c(c3C)CC(C)O4)CC2)cc1 (centres unmarked) [Example 20, 1-(4-Methoxyphenyl)-4-[2,4,6,7-tetramethyl-2,3-dihydro-1-benzofuran-5-yl]piperazine] | 73.9 | 187 |  |  |
| COc1ccc(N2CCN(c3c(C)c(C)c4c(c3C)C[C@@H](C)O4)CC2)cc1 [Example 21, 1-(4-Methoxyphenyl)-4-[(2R)-2,4,6,7-tetramethyl-2,3-dihydro-1-benzofuran-5-yl]piperazine] | 121.3 | 212 |  |  |
| COc1ccc(N2CCN(c3c(C)c(C)c4c(c3C)C[C@H](C)O4)CC2)cc1 [Example 22, 1-(4-Methoxyphenyl)-4-[(2S)-2,4,6,7-tetramethyl-2,3-dihydro-1-benzofuran-5-yl]piperazine] | 73.9 | 389 | 76.9 |  |
| COc1ccc(N2CCN(c3c(C)c4c(c(OC)c3C)OC(C)(C)C4)CC2)cc1 [Example 47, 1-(4-Methoxyphenyl)-4-(7-methoxy-2,2,4,6-tetramethyl-2,3-dihydro-1-benzofuran-5-yl)piperazine] | 55.2 | > 500 | 82.2 |  |
| CCOc1ccc(N2CCN(c3c(C)c4c(c(OC)c3C)OC(C)(C)C4)CC2)cc1 [Example 65, 1-(4-Ethoxyphenyl)-4-(7-methoxy-2,2,4,6-tetramethyl-2,3-dihydro-1-benzofuran-5-yl)piperazine] | 121.0 | > 500 |  |  |
| CC(=O)c1ccc(N2CCN(c3c(C)c(C)c4c(c3C)CC(C)(C)O4)CC2)cc1 [Example 95, 1-{4-[4-(2,2,4,6,7-Pentamethyl-2,3-dihydro-1-benzofuran-5-yl)piperazin-1-yl]phenyl}ethanone] |  | 405 |  |  |
| COc1ccc(N2CCN(c3c(C)c(C)c4c(c3C)CC(C)(CO)O4)CC2)cc1 (centres unmarked) [Example 97, {5-[4-(4-Methoxyphenyl)piperazin-1-yl]-2,4,6,7-tetramethyl-2,3-dihydro-1-benzofuran-2-yl}methanol] |  |  |  | 439 |
| COCC1(C)Cc2c(C)c(N3CCN(c4ccc(OC)cc4)CC3)c(C)c(C)c2O1 (centres unmarked) [Example 101, 1-[2-(Methoxymethyl)-2,4,6,7-tetramethyl-2,3-dihydro-1-benzofuran-5-yl]-4-(4-methoxyphenyl)piperazine hydrochloric acid salt] |  | > 500 |  |  |
| COc1ccc(N2CCN(c3c(C)c(C)c4c(c3C)CC(C)(CN(C)C)O4)CC2)cc1 (centres unmarked) [Example 102, 1-{5-[4-(4-Methoxyphenyl)piperazin-1-yl]-2,4,6,7-tetramethyl-2,3-dihydro-1-benzofuran-2-yl}-N,N-dimethylmethaneamine] |  | 347 |  |  |
| COc1ccc(N2CCN(c3c(C)c(C)c4c(c3C)CC(C)(CN)O4)CC2)cc1 (centres unmarked) [Example 108, 1-{5-[4-(4-Methoxyphenyl)piperazin-1-yl]-2,4,6,7-tetramethyl-2,3-dihydro-1-benzofuran-2-yl}methaneamine] |  | 282 |  |  |
| COc1ccc(N2CCN(c3c(C)c(C)c4c(c3C)CC(C)(CN3CCCC3)O4)CC2)cc1 (centres unmarked) [Example 116, 1-(4-Methoxyphenyl)-4-[2,4,6,7-tetramethyl-2-(pyrrolidin-1-ylmethyl)-2,3-dihydro-1-benzofuran-5-yl]piperazine] |  | 276 |  |  |
| Cc1nn(C)c(C)c1N1CCN(c2c(C)c(C)c3c(c2C)CC(C)(C)O3)CC1 [Example 117, 1-(2,2,4,6,7-Pentamethyl-2,3-dihydro-1-benzofuran-5-yl)-4-(1,3,5-trimethyl-1H-pyrazole-4-yl)piperazine] |  | 100 |  |  |
| COc1ccc(N2CCN(c3c(C)c(C)c4c(c3C)CC(C)(CN3CCC(O)CC3)O4)CC2)cc1 (centres unmarked) [Example 133, 1-({5-[4-(4-methoxyphenyl)piperazin-1-yl]-2,4,6,7-tetramethyl-2,3-dihydro-1-benzofuran-2-yl}methyl)piperidine-4-ol] |  | > 500 |  |  |
| COc1ccc(N2CCN(c3c(C)c(C)c4c(c3C)CC(C)(CNC(C)=O)O4)CC2)cc1 (centres unmarked) [Example 137, N-({5-[4-(4-methoxyphenyl)piperazin-1-yl]-2,4,6,7-tetramethyl-2,3-dihydro-1-benzofuran-2-yl}methyl)acetamide] |  | > 500 |  |  |
